# Test results as given in patent US20210179666A1, “CYCLIC PEPTIDES AND METHODS OF USE THEREOF” (Regents of the University of Minnesota, priority 2019, published 2021).
# Values joined by “and” are separate entries in the source; they are usually repeats but may differ in a detail not shown here. Equal values may be shown once. Read-outs that look alike come from different tables or passages of the source. Square brackets hold non-standard residues; d marks the D form. Peptide text beside a SMILES is read from it. Gly(N-(CH2)3-guanidino) = N=C(N)NCCCNCC(=O)O; Dap = NC[C@H](N)C(=O)O
# Tests used:
# hMC4R [1] = target: T1, hMC4R (Homo sapiens, UniProt P32245); assay: cAMP AlphaScreen bioassay, HEK293 cells stably expressing hMC4R; format: cell-based; set-up: expressed in transfected cells; details: for Observed Inverse Agonism?: hMC4R, cAMP; for hMC4R pA2: antagonist pA2, Schild analysis with agonist NDP-MSH, ± SEM, <5.0 = no antagonist potency up to 10,000 nM
# T1 sequence (P32245 whole entry): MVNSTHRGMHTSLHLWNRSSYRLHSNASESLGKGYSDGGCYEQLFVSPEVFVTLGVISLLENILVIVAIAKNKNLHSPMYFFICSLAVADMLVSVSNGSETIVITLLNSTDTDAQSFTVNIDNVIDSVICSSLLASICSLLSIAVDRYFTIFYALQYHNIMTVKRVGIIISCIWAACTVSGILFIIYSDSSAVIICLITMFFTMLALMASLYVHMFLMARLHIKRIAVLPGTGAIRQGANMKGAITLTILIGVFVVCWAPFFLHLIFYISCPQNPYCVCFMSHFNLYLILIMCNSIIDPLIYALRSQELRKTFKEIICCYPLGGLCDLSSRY
# mMC5R [2] = target: T2, mMC5R (Mus musculus, UniProt P41149); details: for mMC5R pA2: Example 1, antagonist, Schild analysis with NDP-MSH, ± SEM, reported herein for the first time
# T2 sequence (P41149 whole entry): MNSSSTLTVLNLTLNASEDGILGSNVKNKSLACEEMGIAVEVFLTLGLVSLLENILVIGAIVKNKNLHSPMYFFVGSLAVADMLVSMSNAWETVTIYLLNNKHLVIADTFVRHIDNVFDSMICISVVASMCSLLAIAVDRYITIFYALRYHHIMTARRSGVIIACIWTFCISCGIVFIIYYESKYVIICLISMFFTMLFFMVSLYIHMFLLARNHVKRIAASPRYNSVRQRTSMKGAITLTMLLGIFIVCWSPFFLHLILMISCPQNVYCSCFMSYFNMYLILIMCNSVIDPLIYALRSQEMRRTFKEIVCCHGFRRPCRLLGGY
# mMC3R [3] = target: T3, mMC3R (Mus musculus, UniProt P33033); details: compounds 1 and 2, previously reported, cited from earlier work; for mMC3R pA2: antagonist
# T3 sequence (P33033 whole entry): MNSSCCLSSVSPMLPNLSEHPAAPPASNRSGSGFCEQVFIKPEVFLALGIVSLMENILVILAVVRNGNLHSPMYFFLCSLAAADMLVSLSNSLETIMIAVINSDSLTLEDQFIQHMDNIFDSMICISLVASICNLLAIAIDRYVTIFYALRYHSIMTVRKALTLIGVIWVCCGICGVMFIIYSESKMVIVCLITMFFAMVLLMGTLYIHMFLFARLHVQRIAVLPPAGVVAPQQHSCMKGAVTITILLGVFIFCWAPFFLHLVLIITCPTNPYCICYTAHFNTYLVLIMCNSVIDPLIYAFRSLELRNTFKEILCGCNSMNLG
# mMC1R [4] = target: T4, mMC1R (Mus musculus, UniProt Q01727); assay: cAMP AlphaScreen bioassay, HEK293 cells stably expressing mMC1R; details: Example 2; @ 100 μM; EC50 not determinable
# T4 sequence (Q01727 whole entry): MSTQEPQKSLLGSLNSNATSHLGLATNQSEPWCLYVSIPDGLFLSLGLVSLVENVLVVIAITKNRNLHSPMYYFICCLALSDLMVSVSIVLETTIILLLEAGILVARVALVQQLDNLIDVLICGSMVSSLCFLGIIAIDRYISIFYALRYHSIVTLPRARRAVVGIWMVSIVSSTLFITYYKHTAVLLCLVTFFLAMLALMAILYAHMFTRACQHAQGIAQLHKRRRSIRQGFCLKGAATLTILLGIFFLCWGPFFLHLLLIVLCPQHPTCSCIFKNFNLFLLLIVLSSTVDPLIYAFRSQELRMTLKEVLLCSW
# mMC3R [5] = target: T3, mMC3R; details: for mMC3R pA2: antagonist, Schild analysis with NDP-MSH, ± SEM
# mMC5R [6] = target: T2, mMC5R; set-up: expressed in transfected cells; details: compounds 1 and 2, previously reported; cited from earlier work
# MC5R = MC5R (Homo sapiens, UniProt P33032); details: chemically synthetized AgRP ligands, Yang et al. 1999, cited from earlier work
# MC5R, sequence (P33032 whole entry, species assumed): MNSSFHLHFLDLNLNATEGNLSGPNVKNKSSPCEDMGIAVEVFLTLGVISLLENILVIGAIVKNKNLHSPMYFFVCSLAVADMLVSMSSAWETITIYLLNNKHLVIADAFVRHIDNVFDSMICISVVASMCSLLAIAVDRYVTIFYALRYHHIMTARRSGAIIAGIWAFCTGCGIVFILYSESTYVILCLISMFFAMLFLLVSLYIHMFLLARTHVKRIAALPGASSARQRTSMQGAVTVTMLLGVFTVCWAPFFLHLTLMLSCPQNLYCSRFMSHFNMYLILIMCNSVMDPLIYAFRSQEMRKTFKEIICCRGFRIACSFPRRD
# mMC5R [7] = target: T2, mMC5R; assay: 125I-NDP-MSH competitive binding assay, transfected HEK293 cells, mMC5R; details: binding IC50 versus control 1 (Asn) or 2 (Dap)
# hMC4R [8] = target: T1, hMC4R; assay: 125I-NDP-MSH competitive binding assay, transfected HEK293 cells, hMC4R; details: binding IC50 versus control 1 (Asn) or 2 (Dap)
# mMC1R [9] = target: T4, mMC1R; assay: 125I-NDP-MSH competitive binding assay, transfected HEK293 cells, mMC1R; details: binding IC50 versus control 1 (Asn) or 2 (Dap)
# mMC3R [10] = target: T3, mMC3R; assay: 125I-NDP-MSH competitive binding assay, transfected HEK293 cells, mMC3R; details: binding IC50 versus control 1 (Asn) or 2 (Dap)
# mMC4R [11] = target: T5, mMC4R (Mus musculus, UniProt P56450); assay: 125I-NDP-MSH competitive binding assay, transfected HEK293 cells, mMC4R; details: binding IC50 versus control 1 (Asn) or 2 (Dap)
# T5 sequence (P56450 whole entry): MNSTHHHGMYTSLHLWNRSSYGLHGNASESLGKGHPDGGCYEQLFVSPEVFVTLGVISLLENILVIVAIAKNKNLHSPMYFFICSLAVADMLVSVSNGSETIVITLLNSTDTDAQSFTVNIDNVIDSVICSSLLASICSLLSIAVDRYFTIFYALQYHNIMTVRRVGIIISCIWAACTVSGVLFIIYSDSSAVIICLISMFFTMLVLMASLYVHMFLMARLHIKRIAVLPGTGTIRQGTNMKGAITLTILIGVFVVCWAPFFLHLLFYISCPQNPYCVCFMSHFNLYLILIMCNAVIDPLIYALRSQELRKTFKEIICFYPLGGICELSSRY
# mMC4R [12] = target: T5, mMC4R; details: Example 1; for mMC4R pA2: antagonist, Schild analysis with NDP-MSH, ± SEM, <5.0 = no antagonist potency up to 10,000 nM
# mMC4R [13] = target: T5, mMC4R; assay: cell-based
# [14] = Example 1, <5.0 = no antagonist potency up to 10,000 nM
compound,measurement,setting,value
"C[C@@H]1NC(=O)[C@H](CN)NC(=O)[C@H](Cc2ccccc2)NC(=O)[C@H](Cc2ccccc2)NC(=O)[C@H](CCCNC(=N)N)NC(=O)[C@@H]2CCCN2C(=O)[C@H]2CCCN2C(=O)[C@H](Cc2ccccc2)NC1=O [MDE 6-82-1c, c[Pro-Arg-Phe-Phe-Dap-Ala-Phe-DPro]]",Observed Inverse Agonism?,hMC4R [1],Yes
same,mMC5R pharmacology observed (Partial Agonist / Inverse Agonist),mMC5R [2]; Example 2,Inverse
same,"mMC5R inverse agonist, percent decrease from basal","mMC5R [2]; Example 2, basal to plateau signal, sigmoidal dose-response",−10%
same,EC50,mMC3R [3]; agonist,> 100000 nM
same,mMC3R pA2,mMC3R [3],6.5 and 6.5 ± 0.09
same,mMC3R pA2,mMC3R [3]; listed as MDE6-82-1c,6.5-7.2
same,mMC1R percent maximal stimulatory response,mMC1R [4],36% @
same,mMC3R percent maximal stimulatory response,"mMC3R [5]; Example 2, @ 100 μM",20% @
same,mMC3R pA2,"mMC3R [5]; Example 2, <5.5 = no antagonist potency up to 10,000 nM",6.5
same,mMC3R pA2,"mMC3R [5]; Example 2, <5.5 = no antagonist potency up to 10,000 nM, listed as MDE6-82-1c",6.5 ± 0.3
same,"mMC5R inverse agonist, percent decrease from basal",mMC5R [6],−15%
same,mMC5R pharmacology observed in agonist assay (Inverse Agonist),mMC5R [6],Inverse
"AgRP: agouti-related protein, endogenous MC3R and MC4R antagonist and MC4R inverse agonist",Observed Inverse Agonism?,hMC4R [1],Yes
same,IC50,"MC5R; read-out: IC50, displacement of radiolabeled NDP-MSH at the MC5R",310 nM
same,IC50,"MC5R; read-out: IC50, displacement of radiolabeled AgRP at the MC5R",26 nM
"C[C@@H]1NC(=O)[C@H](CN)NC(=O)[C@H](Cc2ccccc2)NC(=O)[C@H](Cc2ccc(O)cc2)NC(=O)[C@H](CCCNC(=N)N)NC(=O)[C@@H]2CCCN2C(=O)[C@H]2CCCN2C(=O)[C@H](Cc2ccccc2)NC1=O [ZMK 2-112, c[Pro-Arg-Tyr-Phe-Dap-Ala-Phe-DPro]] (cyclo(PRYF[Dap]AF[dP]))",hMC4R pA2,hMC4R [1],7.5 and 7.5 ± 0.2
same,Observed Inverse Agonism?,hMC4R [1],Yes
same,mMC5R Fold Diff,mMC5R [7],20
same,hMC4R Fold Diff,hMC4R [8],100
same,mMC1R Fold Diff,mMC1R [9],4
same,mMC5R pA2,mMC5R [2],6.5 and 6.5 ± 0.2
same,mMC3R Fold Diff,mMC3R [10],9
same,mMC4R Fold Diff,mMC4R [11],70
same,mMC3R pA2,mMC3R [5]; [14],6.5 and 6.5 ± 0.1
same,mMC4R pA2,mMC4R [12],7.3 and 7.3 ± 0.1
"CC(C)[C@@H]1NC(=O)[C@H](CC(N)=O)NC(=O)[C@H](Cc2ccccc2)NC(=O)[C@H](Cc2ccccc2)NC(=O)[C@H](CCCNC(=N)N)NC(=O)[C@@H]2CCCN2C(=O)[C@H]2CCCN2C(=O)[C@H](Cc2ccccc2)NC1=O [ZMK 2-82, c[Pro-Arg-Phe-Phe-Asn-Val-Phe-DPro]] (cyclo(PRFFNVF[dP]))",hMC4R pA2,hMC4R [1],7.7
same,hMC4R pA2,hMC4R [1]; listed as AMK 2-82,7.8 ± 0.03
same,Observed Inverse Agonism?,hMC4R [1],Yes
same,mMC5R Fold Diff,mMC5R [7],2
same,hMC4R Fold Diff,hMC4R [8],3
same,mMC1R Fold Diff,mMC1R [9],2
same,mMC5R pA2,mMC5R [2],6.1 and 6.1 ± 0.09
same,mMC3R Fold Diff,mMC3R [10],3
same,mMC4R Fold Diff,mMC4R [11],2
same,mMC3R pA2,mMC3R [5]; [14],5.9 and 5.9 ± 0.1
same,mMC4R percent maximal stimulatory response,"mMC4R [12]; @ 100 μM, relative to NDP-MSH signal",16% @
same,mMC4R pA2,mMC4R [12],7.2 and 7.2 ± 0.1
"C[C@@H]1NC(=O)[C@H](CN)NC(=O)[C@H](Cc2ccccc2)NC(=O)[C@H](Cc2ccccc2)NC(=O)CN(CCCNC(=N)N)C(=O)[C@@H]2CCCN2C(=O)[C@H]2CCCN2C(=O)[C@H](Cc2ccccc2)NC1=O [MDE8-108-3c, c[Pro-NArg-Phe-Phe-Dap-Ala-Phe-DPro]] (cyclo([Gly(N-(CH2)3-guanidino)]FF[Dap]AF[dP]P))",Kb,mMC4R [13],3160 nM
"C[C@@H]1NC(=O)[C@H](CN)NC(=O)[C@H](Cc2ccccc2)NC(=O)[C@H](Cc2ccccc2)NC(=O)[C@H](Cc2c[nH]cn2)NC(=O)[C@@H]2CCCN2C(=O)[C@H]2CCCN2C(=O)[C@H](Cc2ccccc2)NC1=O [ZMK 2-99, c[Pro-His-Phe-Phe-Dap-Ala-Phe-DPro]] (cyclo(PHFF[Dap]AF[dP]))",hMC4R pA2,hMC4R [1],6.4 and 6.4 ± 0.09
same,Observed Inverse Agonism?,hMC4R [1],No
same,mMC5R Fold Diff,mMC5R [7],7
same,hMC4R Fold Diff,hMC4R [8],400
same,mMC1R Fold Diff,mMC1R [9],5
same,mMC3R Fold Diff,mMC3R [10],5
same,mMC4R Fold Diff,mMC4R [11],500
same,mMC3R pA2,mMC3R [5]; [14],5.4 and 5.4 ± 0.1
same,mMC4R pA2,mMC4R [12],6.0 and 6.0 ± 0.1
